Results from the supplement of paper PMC4862054.

What was measured:
Details in all cases: incubation time: 72 h
BT-474 [1] = experiment: normalised response (% of control), CellTox Green; higher = less cell death (100 = DMSO, 0 = benzethonium chloride kill control)
Procedure, shortened: (§1)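 For each plate, 0.1 % DMSO was set to 100 and a positive kill control to 0. Breast cancer cell lines (20 µl suspension) were seeded into 384-well plates already holding compound at 5 concentrations in 10-fold steps over a 10,000-fold range chosen per compound, and incubated for 72 h. CellTox Green fluorescence at 485/520 nm was read before CellTiter-Glo luminescence, which followed 10 min at room temperature. Each value is the normalised signal at one concentration.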

BT-549 [2] = experiment: as above
Procedure, shortened: as §1

CAL-120 [3] = experiment: as above
Procedure, shortened: as §1

CAL-148 [4] = experiment: as above
Procedure, shortened: as §1

CAL-51 [5] = experiment: as above
Procedure, shortened: as §1

CAL-85-1 [6] = experiment: as above
Procedure, shortened: as §1

DU-4475 [7] = experiment: as above
Procedure, shortened: as §1

HCC1143 [8] = experiment: as above
Procedure, shortened: as §1

HCC1599 [9] = experiment: as above
Procedure, shortened: as §1

HCC1937 [10] = experiment: as above
Procedure, shortened: as §1

HDQ-P1 [11] = experiment: as above
Procedure, shortened: as §1

Hs578T [12] = experiment: as above
Procedure, shortened: as §1

MCF-10A [13] = experiment: as above
Procedure, shortened: as §1

MDA-MB-231 [14] = experiment: as above
Procedure, shortened: as §1

MDA-MB-436 [15] = experiment: as above
Procedure, shortened: as §1

MDA-MB-453 [16] = experiment: as above
Procedure, shortened: as §1

MFM-223 [17] = experiment: as above
Procedure, shortened: as §1

BT-474 [18] = experiment: normalised response (% of control), CellTiter-Glo; higher = more viable cells (100 = DMSO, 0 = benzethonium chloride kill control)
Procedure, shortened: as §1

BT-549 [19] = experiment: as above
Procedure, shortened: as §1

CAL-120 [20] = experiment: as above
Procedure, shortened: as §1

CAL-148 [21] = experiment: as above
Procedure, shortened: as §1

CAL-51 [22] = experiment: as above
Procedure, shortened: as §1

CAL-85-1 [23] = experiment: as above
Procedure, shortened: as §1

DU-4475 [24] = experiment: as above
Procedure, shortened: as §1

HCC1143 [25] = experiment: as above
Procedure, shortened: as §1

HCC1599 [26] = experiment: as above
Procedure, shortened: as §1

HCC1937 [27] = experiment: as above
Procedure, shortened: as §1

HDQ-P1 [28] = experiment: as above
Procedure, shortened: as §1

Hs578T [29] = experiment: as above
Procedure, shortened: as §1

MCF-10A [30] = experiment: as above
Procedure, shortened: as §1

MDA-MB-231 [31] = experiment: as above
Procedure, shortened: as §1

MDA-MB-436 [32] = experiment: as above
Procedure, shortened: as §1

MDA-MB-453 [33] = experiment: as above
Procedure, shortened: as §1

MDA-MB-468 [34] = experiment: as above
Procedure, shortened: as §1

MFM-223 [35] = experiment: as above
Procedure, shortened: as §1

SK-BR-3 = experiment: as above
Procedure, shortened: as §1

MDA-MB-468 [36] = experiment: normalised response (% of control), CellTox Green; higher = less cell death (100 = DMSO, 0 = benzethonium chloride kill control)
Procedure, shortened: as §1

SMILES	normalised response (BT-474 [1]) [%]	normalised response (BT-549 [2]) [%]	normalised response (CAL-120 [3]) [%]	normalised response (CAL-148 [4]) [%]	normalised response (CAL-51 [5]) [%]	normalised response (CAL-85-1 [6]) [%]	normalised response (DU-4475 [7]) [%]	normalised response (HCC1143 [8]) [%]	normalised response (HCC1599 [9]) [%]	normalised response (HCC1937 [10]) [%]	normalised response (HDQ-P1 [11]) [%]	normalised response (Hs578T [12]) [%]	normalised response (MCF-10A [13]) [%]	normalised response (MDA-MB-231 [14]) [%]	normalised response (MDA-MB-436 [15]) [%]	normalised response (MDA-MB-453 [16]) [%]	normalised response (MFM-223 [17]) [%]	normalised response (BT-474 [18]) [%]	normalised response (BT-549 [19]) [%]	normalised response (CAL-120 [20]) [%]	normalised response (CAL-148 [21]) [%]	normalised response (CAL-51 [22]) [%]	normalised response (CAL-85-1 [23]) [%]	normalised response (DU-4475 [24]) [%]	normalised response (HCC1143 [25]) [%]	normalised response (HCC1599 [26]) [%]	normalised response (HCC1937 [27]) [%]	normalised response (HDQ-P1 [28]) [%]	normalised response (Hs578T [29]) [%]	normalised response (MCF-10A [30]) [%]	normalised response (MDA-MB-231 [31]) [%]	normalised response (MDA-MB-436 [32]) [%]	normalised response (MDA-MB-453 [33]) [%]	normalised response (MDA-MB-468 [34]) [%]	normalised response (MFM-223 [35]) [%]	normalised response (SK-BR-3) [%]	normalised response (MDA-MB-468 [36]) [%]
CC[C@H](CO)Nc1nc(NCc2ccccc2)c2ncn(C(C)C)c2n1 [Seliciclib] (1000 nM)	101	117	101	106	101	95.5	99.2	107	103	125	92.7	86.4	101	114	84.6	102	95.6	96.9	95.8	97.4	104	80.4	112	101	103	111	105	101	109	95.3	104	107	115	110	109	106	–
Cc1nc(C(=O)NCC(=O)O)c(O)c2ccc(Oc3ccccc3)cc12 [FG-4592] (1000 nM)	101	97.3	103	93	112	101	107	110	93.5	110	–	85.2	94.2	103	108	111	103	106	102	102	97.2	119	105	103	109	117	101	116	109	113	102	100	98.6	103	102	110	86
CC(C)(C)c1nc(-c2cccc(NS(=O)(=O)c3c(F)cccc3F)c2F)c(-c2ccnc(N)n2)s1 [Dabrafenib] (250 nM)	99.1	82.7	-30.1	106	110	110	83	111	100	106	114	–	94.2	107	101	105	103	97.9	91	36.6	101	129	99.8	8.24	106	107	105	115	90.8	125	106	106	92.3	92	107	105	117
CN[C@@H](C)C(=O)N[C@H]1CN(C(=O)CC(C)C)CC[C@H]2CC[C@@H](C(=O)NC(c3ccccc3)c3ccccc3)N2C1=O [AT-406] (1000 nM)	89.7	53.4	76.4	55.1	97.2	24	101	107	93.1	101	79.6	–	109	-42.1	86.1	94.9	54.2	24.8	59.7	85.6	82.4	98.2	63.3	101	95.6	106	94	83.1	95.7	107	38.8	99.1	78.5	71.3	101	99.6	109
COc1cc(Nc2c(C#N)cnc3cc(OCCCN4CCN(C)CC4)c(OC)cc23)c(Cl)cc1Cl [Bosutinib] (10 nM)	–	–	–	–	–	–	–	–	–	–	–	–	–	–	–	–	–	100	98.4	100	105	92.3	94.6	97.7	100	91.1	95.5	97.3	104	96.9	96.1	97.6	104	107	106	102	–
C=CCn1c(=O)c2cnc(Nc3ccc(N4CCN(C)CC4)cc3)nc2n1-c1cccc(C(C)(C)O)n1 [MK1775] (10 nM)	–	–	–	–	–	–	–	–	–	–	–	–	–	–	–	–	–	87.5	98.9	93.1	79.3	121	93.2	93.2	92.4	107	94.5	94.4	101	83	90.5	88.6	81	90.4	88.8	76.1	–
CC1(COc2ccc3c(c2)ncn3-c2ccc3cccc(N4CCC(N)CC4)c3n2)COC1 [Crenolanib] (1000 nM)	91.4	71.2	99.5	97.7	85.9	104	101	99	94.7	51.6	71	83.4	108	124	50.8	112	100	111	82.5	86.7	109	86.2	117	96.2	101	110	100	108	96.4	113	122	103	114	101	102	123	–
CC(C)n1cnc2c(NCCc3ccc(O)cc3)nc(-c3csc4ccccc34)nc21 [StemRegenin 1] (1 nM)	–	–	–	–	–	–	–	–	–	–	–	–	–	–	–	–	–	102	96.7	96.6	98.7	81.3	99.2	102	98.1	99.6	98.6	103	104	106	99.7	105	115	92.6	103	108	–
CC(C)n1cnc2c(NCCc3ccc(O)cc3)nc(-c3csc4ccccc34)nc21 [StemRegenin 1] (10 nM)	–	–	–	–	–	–	–	–	–	–	–	–	–	–	–	–	–	105	92.2	97.4	109	68.8	96.9	100	106	79.5	96.3	99.6	109	105	97.5	96.1	103	97.3	102	98.3	–
CC1(C)CCC(c2ccc(Cl)cc2)=C(CN2CCN(c3ccc(C(=O)NS(=O)(=O)c4ccc(N[C@H](CCN5CCOCC5)CSc5ccccc5)c(S(=O)(=O)C(F)(F)F)c4)cc3)CC2)C1 [Navitoclax] (10 nM)	–	–	–	–	–	–	–	–	–	–	–	–	–	–	–	–	–	94.5	99.5	91.7	90	115	97	99.4	95.9	103	101	87.5	99.7	98.6	98.1	98	100	87.6	96.7	77.3	–
CCN(CC)CCCC(C)Nc1ccnc2cc(Cl)ccc12 (centres undefined) [Chloroquine] (10 nM)	–	–	–	–	–	–	–	–	–	–	–	–	–	–	–	–	–	96.5	107	103	89.2	126	99.8	92.2	104	90.9	95.3	99	104	101	101	113	103	95.2	96.7	92.5	–
